The source of these data is US6124284A, “Bicyclic amide derivatives and their use as muscle relaxants” (Glaxo Wellcome Inc., priority 1998, dated 2000).

This test relates to rat. Briefly: Established adjuvant arthritis (adjuvant-induced polyarthritis in the rat). It is filed as in vivo, female Lewis rats. As to conditions: 50 mg/kg b.i.d. The method, then: The procedures for this test have been described in detail by R. Vinegar, J. F. Truax, J. L. Selph. A. Lea, and P. R. Johnston (J. Immunopharmacol. 1:497-520, 1979). The rats used in these studies were female Lewis rats whose starting weight was 190±10 g. Arthritic rats were assigned to treatment groups consisting of six animals each. Fed rats were dosed by oral gavage starting on day 21 post adjuvant injection; therapy was continued until day 28. The incidence and severity of arthritic lesions were assessed using a modification of the scoring procedure described by H. L. F. Currey and M. Ziff (J. Exp. Med. 121:185-203, 1968). Briefly, the bilateral joints were scored for erythema, edema, and ankylosis as outlined below:
The maximal possible score per rat was 40. Experimental results were analyzed by one-way ANOVA, followed by post hoc comparisons of treatment effects versus untreated arthritic control using the Newman-Keuls test. The percent inhibition of each drug-treated group was calculated from the mean relative to the arthritic control.

Take `NC(=O)/C=C1\CCc2c(F)cc(F)cc21` [Example 5, (E)-2-(4,6 Difluoro-1-indanylidene)acetamide]: where the note is “oral gavage, days 22, 25, and 27, versus untreated arthritic control”, the arthritic scores result is recorded as “significantly (p<0.01) lowered arthritic scores”. Further, for the setting “postmortem on day 27”, the Spleen weight entry is given as “significantly reduced (p<0.01)” and the plasma fibrinogen result is “significantly reduced (p<0.01)”.
